{"source": "patent US20130189354A1", "about": "“Novel Pharmaceutical Compositions for Treating Chronic Pain and Pain Associated with Neuropathy” (priority 2010, published 2013)", "key": {"[1]": {"conditions": "diabetic peripheral neuropathy trials; cited from earlier work"}, "[2]": {"conditions": "fibromyalgia trials, cited from earlier work"}, "central poststroke pain": {"test_system": "central poststroke pain", "conditions": "10 of 15 patients; cited from earlier work"}, "postherpetic neuralgia [3]": {"test_system": "postherpetic neuralgia", "conditions": "oral; cited from earlier work"}, "[4]": {"test_system": "painful diabetic neuropathy", "conditions": "oral; cited from earlier work"}, "Diabetic Neuropathy [5]": {"test_system": "Diabetic Neuropathy", "conditions": "literature values; Tramadol Hydrochloride 400 mg/day (Sindrup 1999), Gabapentin 3600 mg/day (Marchettini 2004); cited from earlier work"}, "Fibromyalgia [6]": {"test_system": "Fibromyalgia", "conditions": "literature values; Tramadol Hydrochloride 400 mg/day (Biasi 1998; Russell 2000), Gabapentin 3600 mg/day (Lesley 2007); cited from earlier work"}, "[7]": {"conditions": "patients with epilepsy; cited from earlier work"}, "[8]": {"test_system": "diabetic neuropathy and fibromyalgia", "experiment": "Pain relief in patients with diabetic neuropathy and fibromyalgia", "type": "in vivo, human", "conditions": "400 mg of tramadol per day", "from_the_text": "In certain preferred embodiments, the invention is directed in part to synergistic combinations of dextromethorphan or other NMDA receptor antagonist in an amount sufficient to render a therapeutic effect together with an anticonvulsant and/or a tricyclic anti-depressant and tramadol or its analog, such that an analgesic effect is attained which is at least about 5 (and preferably at least about 10) times greater than that obtained with the dose of tramadol or its analog alone. This is exemplified by the apparent fact that patients with diabetic neuropathy and fibromyalgia, who could not get even 30-40% reduction in pain even with the administration of 400 mg of tramadol per day, can have shown 90-100% pain relief with the inventive composition containing 35 mg of tramadol, 45 mg of dextromethorphan and 90 mg of gabapentin over a period of 12-16 hours.\n(§1) The synergistic effect of the combination can further be appreciated using Table 1."}, "μ-opiate receptor": {"molecular_target": "μ-opiate receptor (Homo sapiens, UniProt P35372)", "sequence (P35372 whole entry, species assumed)": "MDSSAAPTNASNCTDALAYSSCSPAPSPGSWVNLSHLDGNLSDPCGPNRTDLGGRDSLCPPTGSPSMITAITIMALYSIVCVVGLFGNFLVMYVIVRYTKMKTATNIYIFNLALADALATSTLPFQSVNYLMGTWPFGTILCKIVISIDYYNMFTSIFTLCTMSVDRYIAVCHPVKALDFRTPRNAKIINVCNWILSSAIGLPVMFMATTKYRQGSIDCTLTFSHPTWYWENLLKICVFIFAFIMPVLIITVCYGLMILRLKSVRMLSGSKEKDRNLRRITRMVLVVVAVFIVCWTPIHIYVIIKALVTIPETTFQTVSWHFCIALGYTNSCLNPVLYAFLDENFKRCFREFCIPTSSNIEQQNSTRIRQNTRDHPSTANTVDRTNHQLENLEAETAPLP", "conditions": "cited from earlier work"}, "[9]": {"conditions": "cited from earlier work"}, "pain [10]": {"test_system": "pain", "conditions": "single oral dose of tramadol 100 mg; cited from earlier work"}, "[11]": {"conditions": "rats, i.v. administration; cited from earlier work"}, "[12]": {"test_system": "α2δ subunit of voltage-gated calcium channels", "conditions": "cited from earlier work"}, "[13]": {"test_system": "neuropathy-induced allodynia", "conditions": "in vivo; cited from earlier work"}, "uptake of dopamine": {"test_system": "uptake of dopamine", "conditions": "cited from earlier work"}, "[14]": {"test_system": "a or β adrenergic, muscarinic, histaminergic, and dopaminergic receptors", "conditions": "cited from earlier work"}, "[15]": {"conditions": "cited from earlier work", "remark": "listed apart in the source"}, "Diabetic Neuropathy [16]": {"test_system": "Diabetic Neuropathy", "experiment": "Pain relief in diabetic neuropathy patients (Table 1)", "type": "in vivo, human", "conditions": "individual components at the doses present in TLI-0326 (40.4, 100, 200 mg/day); would have very little effect", "from_the_text": "as §1"}, "Fibromyalgia [17]": {"test_system": "Fibromyalgia", "experiment": "Pain relief in fibromyalgia patients (Table 1)", "type": "in vivo, human", "conditions": "individual components at the doses present in TLI-0326 (40.4, 100, 200 mg/day); would have very little effect", "from_the_text": "as §1"}, "pain [18]": {"test_system": "pain", "conditions": "relative to tramadol; cited from earlier work"}, "post-operative pain": {"test_system": "post-operative pain", "conditions": "third molar surgery; cited from earlier work"}, "postherpetic neuralgia [19]": {"test_system": "postherpetic neuralgia", "conditions": "cited from earlier work"}}, "note": "Counter-ions that a name gives are not always drawn. Like-named read-outs stand apart in the source and are kept apart here."}
{"compound": "CC(C)C[C@H](CN)CC(=O)O", "note": "[pregabalin]", "values": [{"measurement": "patients discontinued prematurely due to adverse reactions", "setting": "[1]", "value": 9, "unit": "%"}, {"measurement": "withdrawal due to asthenia, confusion, and peripheral edema (each)", "setting": "[1]", "value": "approximately 1%"}, {"measurement": "patients discontinued prematurely due to adverse reactions", "setting": "[2]; 150-600 mg/day", "value": 19, "unit": "%"}, {"measurement": "withdrawal due to fatigue, headache, balance disorder, and weight increased (each)", "setting": "[2]", "value": "approximately 1%"}]}
{"compound": "CN(C)CCC=C1c2ccccc2CCc2ccccc21", "note": "[amitriptyline]", "values": [{"measurement": "patients with superior relief compared with placebo", "setting": "central poststroke pain", "value": 67, "unit": "%"}, {"measurement": "share of patients with good or moderate response", "setting": "postherpetic neuralgia [3]", "value": "about two-thirds"}, {"measurement": "share of patients with good or moderate response", "setting": "[4]", "value": "three-quarters"}]}
{"compound": "NCC1(CC(=O)O)CCCCC1", "note": "[Gabapentin]", "values": [{"measurement": "Pain Relief (percent of reduction in pain) Diabetic Neuropathy", "setting": "Diabetic Neuropathy [5]", "value": "<50", "unit": "%"}, {"measurement": "Pain Relief (percent of reduction in pain) Fibromyalgia", "setting": "Fibromyalgia [6]", "value": "<50", "unit": "%"}, {"measurement": "steady-state predose (Cmin) concentration in cerebrospinal fluid as share of plasma concentration", "setting": "[7]", "value": "approximately 20%"}]}
{"compound": "COc1cccc(C2(O)CCCCC2CN(C)C)c1", "note": "(racemic) [tramadol, (+/−)-trans (RR,SS)-2-[(di-methylamino)methyl]-1-(3-methoxyphenyl)cyclohexanol]", "values": [{"measurement": "reduction in pain", "setting": "[8]", "value": "30-40%"}, {"measurement": "affinity for opiate receptors, fold less than codeine", "setting": "μ-opiate receptor; relative to codeine", "value": 10, "unit": "fold"}, {"measurement": "affinity for opiate receptors, fold less than d-propoxyphene", "setting": "μ-opiate receptor; relative to d-propoxyphene", "value": 100, "unit": "fold"}, {"measurement": "affinity for opiate receptors relative to dextromethorphan", "setting": "μ-opiate receptor; relative to dextromethorphan", "value": "equivalent"}, {"measurement": "affinity for opiate receptors, fold less than morphine", "setting": "μ-opiate receptor; relative to morphine", "value": "6,000 fold"}, {"measurement": "accumulation during multiple dose treatment", "setting": "[9]; multiple dose treatment with tramadol", "value": "approximately 2 fold"}, {"measurement": "bioavailability", "setting": "[9]; oral administration", "value": 68, "unit": "%"}, {"measurement": "time to peak serum concentrations", "setting": "[9]; oral administration", "value": "≤ 2", "unit": "h"}, {"measurement": "half-life", "setting": "[9]; single oral dose of 100 mg tramadol", "value": 5.1, "unit": "h"}, {"measurement": "duration of the analgesic effect", "setting": "pain [10]", "value": "about 6 hours"}]}
{"compound": "COc1cc(CNC(=O)CCCCC=CC(C)C)ccc1O", "note": "[capsaicin, 8-methyl-N-vanillyl-6-nonenamide]", "values": [{"measurement": "time to distribution to brain, spinal cord, liver and blood", "setting": "[11]", "value": "≤ 20", "unit": "min"}]}
{"compound": "C[C@@H]1CCC[C@](CN)(CC(=O)O)C1", "note": "[(1R,3R)3-MeGBP]", "values": [{"measurement": "IC50", "setting": "[12]", "value": "> 10000", "unit": "nM"}, {"measurement": "reversal of neuropathy-induced allodynia", "setting": "[13]", "value": "ineffective"}]}
{"compound": "CCN(CC)C(=O)C1(c2ccccc2)CC1CN.Cl", "note": "(stereo not drawn) [milnacipran, 1-phenyl-1-diethyl-aminocarbonyl-2-aminomethyl-cyclopropane (Z) hydrochloride]", "values": [{"measurement": "effect on uptake of dopamine", "setting": "uptake of dopamine", "value": "does not affect"}, {"measurement": "affinity for receptors", "setting": "[14]", "value": "no affinity"}, {"measurement": "adverse event: constipation", "setting": "[15]; 100 mg/day twice daily", "value": 10, "unit": "%"}, {"measurement": "adverse event: headache", "setting": "[15]; 100 mg/day twice daily", "value": 9, "unit": "%"}, {"measurement": "adverse event: abdominal pain", "setting": "[15]; 200 mg/day twice daily", "value": 7, "unit": "%"}, {"measurement": "adverse event: headache", "setting": "[15]; 200 mg/day twice daily", "value": 8, "unit": "%"}, {"measurement": "adverse event: nausea and vomiting", "setting": "[15]; 200 mg/day twice daily", "value": 7, "unit": "%"}]}
{"compound": "C[C@@H]1CCC[C@@](CN)(CC(=O)O)C1", "note": "[(1S,3R)3-MeGBP]", "values": [{"measurement": "IC50", "setting": "[12]", "value": 42, "unit": "nM"}, {"measurement": "reversal of neuropathy-induced allodynia", "setting": "[13]", "value": "effectively reversed"}]}
{"compound": "COc1cccc(C2(O)CCCCC2CN(C)C)c1", "note": "(stereo not drawn) [Tramadol Hydrochloride]", "values": [{"measurement": "Pain Relief (percent of reduction in pain) Diabetic Neuropathy", "setting": "Diabetic Neuropathy [16]", "value": "<10", "unit": "%"}, {"measurement": "Pain Relief (percent of reduction in pain) Fibromyalgia", "setting": "Fibromyalgia [17]", "value": "<10", "unit": "%"}, {"measurement": "Pain Relief (percent of reduction in pain) Diabetic Neuropathy", "setting": "Diabetic Neuropathy [5]", "value": "<35", "unit": "%"}, {"measurement": "Pain Relief (percent of reduction in pain) Fibromyalgia", "setting": "Fibromyalgia [6]", "value": "<30", "unit": "%"}]}
{"compound": "CN(C)C[C@H]1CCCC[C@]1(O)c1cccc(O)c1", "note": "[O-desmethyltramadol (M1), O-desmethyltramadol]", "values": [{"measurement": "analgesic potency relative to parent drug", "setting": "pain [18]", "value": "at least twice the analgesic potency of the parent drug"}]}
{"compound": "N[C@@H](Cc1c[nH]c2ccccc12)C(=O)O", "note": "[tryptophan]", "values": [{"measurement": "effect on post-operative pain or consumption of other analgesics", "setting": "post-operative pain", "value": "no effect"}]}
{"compound": "O=S(=O)([O-])[O-].[Mg+2]", "note": "[Magnesium (present as magnesium sulfate)]", "values": [{"measurement": "Pain Relief (percent of reduction in pain) Diabetic Neuropathy", "setting": "Diabetic Neuropathy [16]", "value": "<10", "unit": "%"}, {"measurement": "Pain Relief (percent of reduction in pain) Fibromyalgia", "setting": "Fibromyalgia [17]", "value": "<10", "unit": "%"}, {"measurement": "pain scores compared with placebo", "setting": "postherpetic neuralgia [19]; 30 mg kg-1 i.v., at 20 and 30 min (P=0.016), not at 10 min", "value": "significantly lower"}, {"measurement": "safety, tolerability and efficacy", "setting": "postherpetic neuralgia [19]; i.v., postherpetic neuralgia", "value": "safe, well-tolerated and effective"}]}
